Columns and labels:
ChsE1-ChsE2 = ChsE1-ChsE2 (Mycobacterium tuberculosis, UniProt P71857+P71858)
[1] = target: T1, ChsE2 (Rv3543c), tagless, expressed from the cistronic construct pigr5 (Mycobacterium tuberculosis H37Rv, UniProt P71858 1-387); test: pull-down
T1 sequence: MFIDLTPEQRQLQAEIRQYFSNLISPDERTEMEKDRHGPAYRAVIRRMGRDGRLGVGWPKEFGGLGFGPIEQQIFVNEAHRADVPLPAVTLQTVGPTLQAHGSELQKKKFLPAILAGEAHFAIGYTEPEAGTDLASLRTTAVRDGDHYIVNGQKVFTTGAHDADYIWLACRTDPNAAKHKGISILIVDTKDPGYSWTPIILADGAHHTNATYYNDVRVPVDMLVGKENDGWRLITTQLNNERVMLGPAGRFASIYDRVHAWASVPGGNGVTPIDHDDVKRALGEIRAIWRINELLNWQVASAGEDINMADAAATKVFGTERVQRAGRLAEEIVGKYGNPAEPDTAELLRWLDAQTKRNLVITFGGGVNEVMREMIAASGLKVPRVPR

In the case of `Cc1cc2nc3c(=O)[nH]c(=O)nc-3n(C[C@H](O)[C@H](O)[C@H](O)COP(=O)(O)OP(=O)(O)OC[C@H]3O[C@@H](n4cnc5c(N)ncnc54)[C@H](O)[C@@H]3O)c2cc1C` [FAD], the “LC/UV/MS of released flavin (m/z 786), UV-visible spectrum” value (ChsE1-ChsE2) is reported as “ChsE1-ChsE2 is isolated as a holoprotein with FAD cofactor”.

B1: ChsE1 (Rv3544c), N-terminal His6 tagged, expressed from the cistronic construct pigr5 (enzyme)
chain: MDFDPTAEQQAVADVVTSVLERDISWEALVCGGVTALPVPERLGGDGVGLFEVGALLTEVGRHGAVTPALATLGLGVVPLLELASAEQQDRFLAGVAKGGVLTAALNEPGAALPDRPATSFVGGRLSGTKVGVGYAEQADWMLVTADNAVVVVSPTADGVRMVRTPTSNGSDEYVMTMDGVAVADCDILADVAAHRVNQLALAVMGAYADGLVAGALRLTADYVANRKQFGKPLSTFQTVAAQLAEVYIASRTIDLVAKSVIWRLAEDLDAGDDLGVLGYWVTSQAPPAMQICHHLHGGMGMDVTYPMHRYYSTIKDLTRLLGGPSHRLELLGARCSLT
B1: binds [1].
